# Marks after values point to notes of the source that are not given here.
# Tests used:
# IL-4 mRNA = test: Inhibition of PMA-induced IL-4 mRNA expression in EL-4 cells (PCR); type: cell-based, mouse; settings: 20 μg/mL, PMA 1 ng/mL; for Inhibition (%) of IL-4 mRNA expression: vs PMA-treated group
# Protocol: Based on the results of Example 1, each of the monoacetyldiacylglycerol compounds was added to EL-4 cells at a concentration of 20 μg/mL, and the effect thereof on the inhibition of PMA-induced expression of IL-4 mRNA in the EL-4 cells was measured. Specifically, the expression level of IL-4 mRNA induced by PMA (1 ng/mL) was measured using real-time polymerase chain reaction (real-time PCR) and quantitative real time polymerase chain reaction (qPCR). For cell preparation, EL-4 cells were seeded into a 6-well plate at a concentration of 1×10^6 cells/well and cultured for 12 hours, after which the cells were treated with each of the monoacetyldiacylglycerol compounds at a concentration of 20 μg/mL for 1 hour and treated with PMA at a concentration of 1 ng/m, followed by culture for 12 hours. Total RNA was extracted from the cells using Trizol B (Invitrogen, USA) and quantified, and then cDNA was synthesized from the total RNA using an Omniscript RT kit (Qiagen, GmbH, Hilden, Germany). The synthesized cDNA as a template was mixed with each of the IL-4 and GAPDH primers shown in Table 2 below and was subjected to PCR using a PCR mix (PCR Master Mix, Bioneer, Korea) under the following conditions: denaturation at 94° C. for 5 minutes; and then 30 cycles, each consisting of 30 sec at 95° C., 45 sec at 60° C., and 45 sec at 72° C.; followed by enzyme inactivation at 72° C. for 10 minutes. The results of measuring the percent inhibition of expression of IL-4 mRNA in EL-4 cells as described above are shown in Table 3 below. The designation of each of the samples shown in Table 3 below is as described with respect to Table above.
# [1] = test system: total inflammatory cells in bronchoalveolar lavage fluid; test: COPD mouse model (LPS+CS): total cell count in bronchoalveolar lavage fluid; type: in vivo, BALB/c mice; settings: BALF; for % inhibition of total cell: vs COPD group
# Protocol: (§1) To make COPD mouse models, 8-week-old male BALB/c mice were anesthetized with 7% chloral hydrate, and then intratracheally inhaled with 100 μl of a 1:1 mixture of 100 μg/ml of LPS and 4 mg/ml, of standard cigarette smoking (CS) extract (LPS+CS mixture) once a week for 3 weeks. […] EC-18 was dissolved in 0.5% CMC (carboxmethylcellulose sodium) to concentrations of 30 mg/kg and 60 mg/kg, and administered orally to the mice at 1 hour before intratracheal inhalation of 100 μl of the PS+CS mixture. The mice were divided into: (i) an untreated normal group (intact); (ii) a control group treated with LPS+CS (COPD-control); (iii) a test group administered orally with 30 mg/kg of EC-18 at 1 hour before treatment with LPS+CS; and (iv) a test group administered orally with 60 mg/kg of EC-18 at 1 hour before treatment with the LPS+CS mixture. After completion of the experiment, blood, bronchoalveolar lavage fluid and lung tissue were isolated from the mice of each of the groups.
# (§2) After blood collection, the mice were dissected. To isolate cells from the bronchoalveolar lavage fluid (BALF), a syringe containing 1 ml of FBS-free DMEM medium was injected into the trachea and fixed with a string, and then cells were separated by performing circulation three times and were treated with ACK solution at 37° C. for 5 minutes to lyse red blood cells. Next, the cells were washed with FBS-free DMEM medium and then stained with 0.04% trypan blue, after which the number of total cells was measured.
# [2] = test system: neutrophils in bronchoalveolar lavage fluid; test: COPD mouse model (LPS+CS): neutrophil count in bronchoalveolar lavage fluid; type: in vivo, BALB/c mice; settings: BALF; for % inhibition of neutrophil: vs COPD group
# Protocol: as §1, §2
# CD4+ cells = test: COPD mouse model: CD4+ cells in BAL by flow cytometry; type: in vivo, BALB/c mice; settings: for CD4^+ cells (10^4): BAL cells; for % inhibition of CD4^+ cells: vs COPD group
# Protocol: as §1
# (§3) The separated BAL cells were adjusted to 5×10^5 cells, and then subjected to immunofluorescence staining at 4° C. PE-anti-CD4 (553047, BD Pharmingen) and PE-anti-Gr-1 (553128, BD Pharmingen) were added to the cells which were then incubated on ice for 30 minutes. After incubation, the cells were washed three times or more with phosphate buffered saline, and then the frequency of CD4^+ cells and Gr-1^+ neutrophils was analyzed using the Cell Quest program (643274, BD Biosciences) of a flow cytometer. Next, based on total cells, the absolute number of cells in each tissue was calculated.
# Gr-1+ neutrophils = test: COPD mouse model: Gr-1+ neutrophils in BAL by flow cytometry; type: in vivo, BALB/c mice; settings: for Gr-1^+ neutrophils (10^4): BAL cells; for % inhibition of Gr-1^+ neutrophils: vs COPD group
# Protocol: as §1, §3
# CXCL-1 = test: COPD mouse model: CXCL-1 in bronchoalveolar lavage fluid by ELISA; type: in vivo, BALB/c mice; settings: for CXCL-1: BALF; for % inhibition of CXCL-1: vs COPD group
# Protocol: as §1
# (§4) The levels of CXCL-1, TNF-α and MIP-2 in the bronchoalveolar lavage isolated from the mice were measured by an enzyme-linked immunosorbent assay (ELISA). An antibody specific for each of CXCL-1, TNF-α and MIP-2 was diluted in coating buffer (291195, R&D System), coated on microwells, and then incubated overnight at 4° C. Each well was washed three times with washing buffer, and then 100 μl of serum (10-fold diluted) was added to each well. Each well was allowed to stand at room temperature for 1 hour, and then washed twice with washing buffer antibody, after which each well was treated with 100 μl of avidin-conjugated HRP (DY998, R&D System) and allowed to stand at room temperature for 1 hour, followed by washing. 100 μl of a TMB substrate was added to each well which was then allowed to stand in a dark room for 30 minutes and treated with 50 μl of a stop solution. Next, the absorbance at 450 nm was measured using an ELISA reader (Emax, Molecular Devices), and the percent inhibition of expression was calculated.
# TNF-α = test: COPD mouse model: TNF-α in bronchoalveolar lavage fluid by ELISA; type: in vivo, BALB/c mice; settings: for TNF-α: BALF; for % inhibition of TNF-α: vs COPD group
# Protocol: as §1, §4
# MIP-2 = test: COPD mouse model: MIP-2 in bronchoalveolar lavage fluid by ELISA; type: in vivo, BALB/c mice; settings: for MIP-2: BALF; for % inhibition of MIP-2: vs COPD group
# Protocol: as §1, §4
# sepsis animal model = settings: cecal-ligation-puncture; cited from earlier work
# [3] = GLP toxicity test; cited from earlier work
# EL-4 cells = settings: mouse, 24 h, 10 μg/ml
# Protocol: EL-4 cells that are mouse T lymphoma cells were suspended in 10% fetal bovine serum-containing RPMI medium (Gibco) at a concentration of 5×10^4 cells/ml, and 100 μl of the cell suspension was seeded into each well of a 96-well plate and cultured for 12 hours. Next, the cell culture was treated with monoacetyldiacylglycerol (MADG) compounds at the concentrations shown in Table 1 below, and was then additionally cultured for 24 hours. Next, according to the instruction provided in a CCK-8 kit (Dojindo) capable of counting cells, 10 μl of CCK-8 solution was added to the kit and allowed to react for 30 minutes to 4 hours, and then the absorbance (OD) at 570 nm was measured. In equation 1, the negative control group indicates a cell culture treated with 0.2% DMSO. […] Cell viability (%)=[(OD 570 nm value of MADC-treated group)/(OD 570 nm value of negative control group)]×100 Equation 1
smiles,measurement,setting,value
"CCCCC/C=C\C/C=C\CCCCCCCC(=O)OC(COC(C)=O)COC(=O)CCCCCCCCCCCCCCC (stereo not shown) [EC-18, 1-palmitoyl-2-linoleoyl-3-acetylglycerol]",Expression level of IL-4 mRNA (percentage relative to PMA-treated group),IL-4 mRNA,78.17 ± 6.26 percentage
same,Inhibition (%) of IL-4 mRNA expression,IL-4 mRNA,21.83%
same,Total cell (10^6),[1]; 30 mg/kg oral,81.0 ± 12.14^ 10^6
same,% inhibition of total cell,[1]; 30 mg/kg oral,15.1%
same,Total cell (10^6),[1]; 60 mg/kg oral,52.8 ± 10.41* 10^6
same,% inhibition of total cell,[1]; 60 mg/kg oral,44.8%
same,Neutrophil,[2]; 30 mg/kg oral,no great change
same,% inhibition of neutrophil,[2]; 30 mg/kg oral,3%
same,Neutrophil,"[2]; 30 mg/kg oral, listed as EC18",196.9 ± 31.61
same,Neutrophil,[2]; 60 mg/kg oral,116.8 ± 37.43
same,% inhibition of neutrophil,[2]; 60 mg/kg oral,42%
same,CD4^+ cells (10^4),CD4+ cells; 30 mg/kg oral,308.2 ± 66.78 10^4
same,% inhibition of CD4^+ cells,CD4+ cells; 30 mg/kg oral,39.6%
same,CD4^+ cells (10^4),CD4+ cells; 60 mg/kg oral,152.8 ± 66.25 10^4
same,% inhibition of CD4^+ cells,CD4+ cells; 60 mg/kg oral,70.0%
same,Gr-1^+ neutrophils (10^4),Gr-1+ neutrophils; 30 mg/kg oral,20.0 ± 6.97 10^4
same,% inhibition of Gr-1^+ neutrophils,Gr-1+ neutrophils; 30 mg/kg oral,40.9%
same,Gr-1^+ neutrophils (10^4),Gr-1+ neutrophils; 60 mg/kg oral,12.6 ± 4.93 10^4
same,% inhibition of Gr-1^+ neutrophils,Gr-1+ neutrophils; 60 mg/kg oral,62.7%
same,CXCL-1,CXCL-1; 30 mg/kg oral,264.3 ± 79.77 pg/mL
same,% inhibition of CXCL-1,CXCL-1; 30 mg/kg oral,15.4%
same,CXCL-1,CXCL-1; 60 mg/kg oral,142.9 ± 26.99 pg/mL
same,% inhibition of CXCL-1,CXCL-1; 60 mg/kg oral,54.3%
same,TNF-α,TNF-α; 30 mg/kg oral,22.4 ± 13.98 pg/mL
same,% inhibition of TNF-α,TNF-α; 30 mg/kg oral,36.0%
same,TNF-α,TNF-α; 60 mg/kg oral,13.4 ± 5.33 pg/mL
same,% inhibition of TNF-α,TNF-α; 60 mg/kg oral,61.8%
same,MIP-2,MIP-2; 30 mg/kg oral,28.9 ± 5.72 pg/mL
same,% inhibition of MIP-2,MIP-2; 30 mg/kg oral,40.6%
same,MIP-2,MIP-2; 60 mg/kg oral,17.6 ± 4.07 pg/mL
same,% inhibition of MIP-2,MIP-2; 60 mg/kg oral,63.8%
same,survivability ratio of animals,sepsis animal model,increases survivability ratio of animals
same,toxicity,[3],no-toxicity
"CCCCC/C=C\C/C=C\CCCCCCCC(=O)OCC(COC(C)=O)OC(=O)CCCCCCCCCCCCCCC (stereo not shown) [LPAG, 1-linoeoyl-2-palmitoyl-3-acetylglycerol]",Expression level of IL-4 mRNA (percentage relative to PMA-treated group),IL-4 mRNA,61.11 ± 27.49 percentage
"CCCCC/C=C\C/C=C\CCCCCCCC(=O)OCC(COC(C)=O)OC(=O)CCCCCCCCCCCCCCCCC (stereo not shown) [LSAG, 1-linoeoyl-2-stearoyl-3-acetylglycerol]",Expression level of IL-4 mRNA (percentage relative to PMA-treated group),IL-4 mRNA,41.62 ± 17.61 percentage
"CCCCCCCC/C=C\CCCCCCCC(=O)OCC(COC(C)=O)OC(=O)CCCCCCCCCCCCCCC (stereo not shown) [OPAG, 1-oleoyl-2-palmitoyl-3-acetylglycerol]",Expression level of IL-4 mRNA (percentage relative to PMA-treated group),IL-4 mRNA,58.58 ± 21.74 percentage
same,Inhibition (%) of IL-4 mRNA expression,IL-4 mRNA,41.42%
"CCCCCCCC/C=C\CCCCCCCC(=O)OCC(COC(C)=O)OC(=O)CCCCCCCCCCCCCCCCC (stereo not shown) [OSAG, 1-oleoyl-2-stearoyl-3-acetylglycerol]",Expression level of IL-4 mRNA (percentage relative to PMA-treated group),IL-4 mRNA,55.84 ± 25.77 percentage
same,Inhibition (%) of IL-4 mRNA expression,IL-4 mRNA,44.16%
"CCCCCCCC/C=C\CCCCCCCC(=O)OC(COC(C)=O)COC(=O)CCCCCCCCCCCCCCC (stereo not shown) [POAG, 1-palmitoyl-2-oleoyl-3-acetylglycerol]",Expression level of IL-4 mRNA (percentage relative to PMA-treated group),IL-4 mRNA,75.47 ± 13.15 percentage
same,Inhibition (%) of IL-4 mRNA expression,IL-4 mRNA,24.53%
same,"EL-4 cell viability (%, mean ± SD)",EL-4 cells,106.39 ± 1.19%
"CCCCCCCCCCCCCCCC(=O)OCC(COC(C)=O)OC(=O)CCCCCCCCCCCCCCC (stereo not shown) [PPAG, 1-palmitoyl-2-palmitoyl-3-acetylglycerol]",Expression level of IL-4 mRNA (percentage relative to PMA-treated group),IL-4 mRNA,48.62 ± 19.38 percentage
same,Inhibition (%) of IL-4 mRNA expression,IL-4 mRNA,51.38%
"CCCCCCCCCCCCCCCCCC(=O)OC(COC(C)=O)COC(=O)CCCCCCCCCCCCCCC (stereo not shown) [PSAG, 1-palmitoyl-2-stearoyl-3-acetylglycerol]",Expression level of IL-4 mRNA (percentage relative to PMA-treated group),IL-4 mRNA,70.49 ± 17.78 percentage
same,Inhibition (%) of IL-4 mRNA expression,IL-4 mRNA,29.51%
